Here are results for 42 compounds from patent US10280149B2, “Therapeutic compounds and uses thereof” (GENENTECH, INC., priority 2015, dated 2019).

The test addresses Full length KDM2B (Homo sapiens (Human), UniProt Q8NHM5). Briefly: KDM2B TR-FRET assay for determining inhibitor IC50. The test is classed as biochemical. As to conditions: TR-FRET (HTRF), biotin-H3K36me2 peptide substrate, 2-OG 0.3 μM or 6 μM. From the text:
KDM2B TR-FRET Assay for Determining Inhibitor IC50
The KDM2B TR-FRET Assay described above represents an additional embodiment of the invention.

Where a name gives a salt, the structure may show the parent alone.

Full length KDM2B, sequence (Q8NHM5 whole entry): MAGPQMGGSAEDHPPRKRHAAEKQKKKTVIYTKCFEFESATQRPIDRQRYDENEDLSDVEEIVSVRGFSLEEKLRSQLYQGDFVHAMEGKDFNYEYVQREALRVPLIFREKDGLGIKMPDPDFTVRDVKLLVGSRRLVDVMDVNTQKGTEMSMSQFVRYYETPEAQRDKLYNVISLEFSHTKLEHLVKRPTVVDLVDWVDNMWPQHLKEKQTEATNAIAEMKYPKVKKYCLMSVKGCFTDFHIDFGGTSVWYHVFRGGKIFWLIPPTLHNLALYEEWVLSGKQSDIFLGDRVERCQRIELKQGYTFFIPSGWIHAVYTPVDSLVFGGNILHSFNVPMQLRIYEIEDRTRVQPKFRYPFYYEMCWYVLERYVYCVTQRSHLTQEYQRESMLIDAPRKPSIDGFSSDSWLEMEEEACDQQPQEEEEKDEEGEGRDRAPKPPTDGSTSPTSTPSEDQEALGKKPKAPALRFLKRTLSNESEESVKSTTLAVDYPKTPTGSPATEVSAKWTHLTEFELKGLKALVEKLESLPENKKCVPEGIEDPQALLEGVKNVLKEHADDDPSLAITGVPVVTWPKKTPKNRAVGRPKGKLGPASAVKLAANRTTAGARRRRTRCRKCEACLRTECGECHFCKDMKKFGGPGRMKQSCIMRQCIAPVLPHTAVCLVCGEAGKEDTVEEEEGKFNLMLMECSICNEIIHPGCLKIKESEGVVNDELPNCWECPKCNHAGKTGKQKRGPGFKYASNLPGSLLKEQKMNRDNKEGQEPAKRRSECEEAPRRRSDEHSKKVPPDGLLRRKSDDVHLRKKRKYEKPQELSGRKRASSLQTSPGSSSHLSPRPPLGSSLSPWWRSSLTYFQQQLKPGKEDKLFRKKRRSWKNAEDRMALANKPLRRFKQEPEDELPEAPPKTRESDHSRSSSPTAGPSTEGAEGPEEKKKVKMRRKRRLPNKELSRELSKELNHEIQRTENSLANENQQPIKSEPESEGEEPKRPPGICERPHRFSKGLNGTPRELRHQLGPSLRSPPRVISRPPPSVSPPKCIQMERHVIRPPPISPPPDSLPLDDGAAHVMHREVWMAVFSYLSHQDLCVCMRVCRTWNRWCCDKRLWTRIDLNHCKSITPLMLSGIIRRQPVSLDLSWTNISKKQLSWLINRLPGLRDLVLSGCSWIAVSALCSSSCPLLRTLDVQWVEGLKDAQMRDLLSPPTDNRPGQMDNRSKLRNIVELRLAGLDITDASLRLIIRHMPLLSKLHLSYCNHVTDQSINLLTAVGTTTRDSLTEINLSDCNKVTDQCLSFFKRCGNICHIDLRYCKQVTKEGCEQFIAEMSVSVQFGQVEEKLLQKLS

The IC50 is the concentration at which inhibition is half-maximal. For `O=C(c1cc(CO)c2ccccc2c1)C1CCCN(CC2CC2)C1` (stereo not drawn) [Example 35, [1-(cyclopropylmethyl)-3-piperidyl]-[4-(hydroxymethyl)-2-naphthyl]methanone], the IC50 amounted to 169 nM.
Next, `CC1CC1CN1CCCC(C(=O)c2ccc3cc(C#N)ccc3c2)C1` (stereo not drawn) [Example 164, 6-(1-((2-methylcyclopropyl)methyl)piperidine-3-carbonyl)-2-naphthonitrile]: 436 nM; `COc1ccc2cc(C(=O)C3CCCN(C4CCOCC4)C3)ccc2c1` (stereo not drawn) [Example 6, (6-methoxy-2-naphthyl)-(1-tetrahydropyran-4-yl-3-piperidyl)methanone]: 2600 nM; `O=C(c1cc2ccccc2s1)C1CCCN(CC2CC2)C1` (stereo not drawn) [Example 120, Benzo[b]thiophen-2-yl(1-(cyclopropylmethyl)piperidin-3-yl)methanone]: 389 nM.
`COc1ccc2cc(C(=O)C3CN(C4CCC4)CCN3Cc3ccc4ccccc4c3)ccc2c1` (stereo not drawn) [Example 197, [4-cyclobutyl-1-(2-naphthylmethyl)piperazin-2-yl]-(6-methoxy-2-naphthyl)methanone] showed a concentration for half-maximal inhibition (IC50) of 165 nM.
The value for `COc1ccc2cc(C(=O)C3CCCN(C4CCC4)C3)ccc2c1CO` (stereo not drawn) [Example 189, (1-cyclobutylpiperidin-3-yl)(5-(hydroxymethyl)-6-methoxynaphthalen-2-yl)methanone hydrochloride] was 55.3 nM; that for `O=C(c1cccc(Oc2ccc(F)cc2)c1)C1CCCN(CC2CC2)C1` (stereo not drawn) [Example 27, [1-(cyclopropylmethyl)-3-piperidyl]-[3-(4-fluorophenoxy)phenyl]methanone] was 221 nM; that for `COc1ccc2cc(C(=O)C3CN(CC4CC4)CCC3C(F)(F)F)ccc2c1` (single isomer, unassigned) [Example 138b, (1-(cyclopropylmethyl)-4-(trifluoromethyl)piperidin-3-yl)(6-methoxynaphthalen-2-yl)methanone] was 4800 nM.
Next, `COc1ccc2cc(C(=O)[C@H]3CN(C4CCC4)CC[C@H]3C)ccc2c1CC#N` (stereo in doubt) [Example 182a, 2-(6-(1-cyclobutyl-4-methylpiperidine-3-carbonyl)-2-methoxynaphthalen-1-yl)acetonitrile]: 290 nM.
Consider `C[C@@H]1CCN(CC2CC2)C[C@H]1C(=O)c1ccc2cc(C#N)ccc2c1` (stereo in doubt) [Example 160b, 6-(1-(cyclopropylmethyl)-4-methylpiperidine-3-carbonyl)-2-naphthonitrile], for which the half-maximal inhibitory concentration (IC50) is 113 nM.
Next, `COc1ccc2cc(C(=O)C3CCCN(CC4CC4)C3)ccc2n1` (stereo not drawn) [Example 122, (1-(cyclopropylmethyl)piperidin-3-yl)(2-methoxyquinolin-6-yl)methanone]: 205 nM; `CS(=O)(=O)c1ccc2cc(C(=O)C3CCCN(C4CCC4)C3)ccc2c1` (stereo not drawn) [Example 170, (1-cyclobutylpiperidin-3-yl)(6-(methylsulfonyl)naphthalen-2-yl)methanone]: 42.6 nM; `CCCC1CCN(C2CCC2)CC1C(=O)c1ccc2cc(OC)ccc2c1` (single isomer, unassigned) [Example 140d, (1-cyclobutyl-4-propylpiperidin-3-yl)(6-methoxynaphthalen-2-yl)methanone]: 9.96 nM.
On to `N#Cc1ccc2cc(C(=O)C3CCCN(CC4CC4)C3)ccc2c1` (stereo not drawn) [Example 159, 6-(1-(cyclopropylmethyl)piperidine-3-carbonyl)-2-naphthonitrile], for which the IC50 turned out to be 68.8 nM.
Consider `CC[C@@H]1CCN(C2CCC2)C[C@H]1C(=O)c1ccc2c(CC#N)c(OC)ccc2c1` (stereo in doubt) [Example 183a, 2-(6-(1-cyclobutyl-4-ethylpiperidine-3-carbonyl)-2-methoxynaphthalen-1-yl)acetonitrile], for which the IC50 was determined as 55.2 nM.
Next, `COc1ccc2cc(C(=O)[C@H]3CCCN(C4CCCC4)C3)ccc2c1` [Example 10, [(3S)-1-cyclopentyl-3-piperidyl]-(6-methoxy-2-naphthyl)methanone]: 56.6 nM; `COc1ccc2cc(C(=O)C3CCCN(C4CCC4)C3)ccc2c1CC#N` (stereo not drawn) [Example 55, 2-[6-(1-cyclobutylpiperidine-3-carbonyl)-2-methoxy-1-naphthyl]acetonitrile]: 13.2 nM.
Next, `CCCN1CCCC(C(=O)c2ccc3c(c2)CCCC3)C1` (stereo not drawn) [Example 107, (1-propyl-3-piperidyl)-tetralin-6-yl-methanone]: 99.8 nM; `CCC[C@H]1CCN(C2CCC2)C[C@@H]1C(=O)c1ccc2cc(OC)ccc2c1` (single isomer, unassigned) [Example 140b, (1-cyclobutyl-4-propylpiperidin-3-yl)(6-methoxynaphthalen-2-yl)methanone]: 328 nM.
For the compound `CN(C)C(=O)c1ccc2cc(C(=O)C3CCCN(CC4CC4)C3)ccc2c1` (stereo not drawn) [Example 176, 6-(1-(cyclopropylmethyl)piperidine-3-carbonyl)-N,N-dimethyl-2-naphthamide], the IC50 turned out to be 214 nM.
`CCCN1CCCC(C(=O)c2ccc(Cl)cc2)C1` (stereo not drawn) [Example 91, (4-chlorophenyl)-(1-propyl-3-piperidyl)methanone] returned a half-inhibitory concentration (IC50) of 1600 nM.
Turning to `Cc1noc2cc(C(=O)C3CCCN(CC4CC4)C3)ccc12` (stereo not drawn) [Example 129, (1-(cyclopropylmethyl)piperidin-3-yl)(3-methylbenzo[d]isoxazol-6-yl)methanone], the IC50 was 492 nM.
Turning to `Cc1c(C(=O)C2CCCN(CC3CC3)C2)ccc2ccccc12` (stereo not drawn) [Example 115, (1-(cyclopropylmethyl)piperidin-3-yl)(1-methylnaphthalen-2-yl)methanone], the IC50 turned out to be 439 nM.
Next, `O=C(c1ccc2ccccc2n1)C1CCCN(CC2CC2)C1` (single isomer, unassigned) [Example 117a, (1-(cyclopropylmethyl)piperidin-3-yl)(quinolin-2-yl)methanone]: 356 nM; `COc1ccc2cc(C(=O)[C@@]3(F)CCCN(CC4CC4)C3)ccc2c1` (stereo in doubt) [Example 157]: 6100 nM.
Next, `O=C(c1cc(CO)c2ccccc2c1)C1CCCN(C2CCCC2)C1` (stereo not drawn) [Example 57, (1-cyclopentyl-3-piperidyl)-[4-(hydroxymethyl)-2-naphthyl]methanone]: 125 nM.
The value for `COc1ccc2cc(C(=O)C3CN(C4CCC4)CCN3Cc3cccc(C#N)c3)ccc2c1` (stereo not drawn) [Example 193, 3-[[4-cyclobutyl-2-(6-methoxynaphthalene-2-carbonyl)piperazin-1-yl]methyl]benzonitrile] was 22.3 nM; that for `O=C(c1ccc2c(c1)CCCC2)C1CCCN(C2CCC2)C1` (stereo not drawn) [Example 133, (1-cyclobutyl-3-piperidyl)-tetralin-6-yl-methanone] was 103 nM; that for `COc1ccc2cc(C(=O)[C@@H]3CN(C4CCC4)CC[C@@H]3CC(C)C)ccc2c1` (single isomer, unassigned) [Example 144a, (1-cyclobutyl-4-isobutylpiperidin-3-yl)(6-methoxynaphthalen-2-yl)methanone] was 5.6 nM.
In turn, `O=C(c1ccc2ccccc2n1)[C@@H]1CCCN(CC2CC2)C1` (stereo in doubt) [Example 117b, (1-(cyclopropylmethyl)piperidin-3-yl)(quinolin-2-yl)methanone] came in with an IC50 of 750 nM.
`CCCN1CCCC(C(=O)c2ccccc2-c2ccccc2)C1` (stereo not drawn) [Example 102, (2-phenylphenyl)-(1-propyl-3-piperidyl)methanone] yielded an IC50 of 5800 nM. This IC50 lies about 7.7-fold higher than the previous one.
Compound `COc1ccc2cc(C(=O)[C@@H]3CN(C4CCC4)CC[C@@H]3C)ccc2c1CC#N` (stereo in doubt) [Example 182b, 2-(6-(1-cyclobutyl-4-methylpiperidine-3-carbonyl)-2-methoxynaphthalen-1-yl)acetonitrile] displayed a half-inhibitory concentration (IC50) of 1.12 nM.
In turn, `Cc1ccc2cc(C(=O)C3CCCN(C4CCCC4)C3)ccc2c1` (stereo not drawn) [Example 166, (1-cyclopentylpiperidin-3-yl)(6-methylnaphthalen-2-yl)methanone] had an IC50 of 240 nM.
Next, `CC[C@H]1CCN(C2CCC2)C[C@@H]1C(=O)c1ccc2c(CC#N)c(OC)ccc2c1` (stereo in doubt) [Example 183b, 2-(6-(1-cyclobutyl-4-ethylpiperidine-3-carbonyl)-2-methoxynaphthalen-1-yl)acetonitrile]: 2.06 nM; `CCCN1CCCC(C(=O)c2ccc(OC)c(OC)c2)C1` (stereo not drawn) [Example 104, (3,4-dimethoxyphenyl)-(1-propyl-3-piperidyl)methanone]: 744 nM.
The value for `NC(=O)c1cc(C(=O)C2CCCN(C3CCC3)C2)cc2ccccc12` (stereo not drawn) [Example 47, 3-(1-cyclobutylpiperidine-3-carbonyl)naphthalene-1-carboxamide] was 99.7 nM.
The compound `CCCN1CCCC(C(=O)c2ccc3cccc(C)c3c2)C1` (stereo not drawn) [Example 60, (8-methyl-2-naphthyl)-(1-propyl-3-piperidyl)methanone] yielded a half-inhibitory concentration (IC50) of 125 nM.
Consider `O=C(c1ccc2c(OCc3ccccc3)cccc2c1)C1CCCN(CC2CC2)C1` (stereo not drawn) [Example 123, (5-(benzyloxy)naphthalen-2-yl)(1-(cyclopropylmethyl)piperidin-3-yl)methanone], for which the IC50 was found to be 90.9 nM.
Take `CCC1CCN(C2CC2)CC1C(=O)c1ccc2cc(OC)ccc2c1` (single isomer, unassigned) [Example 147b, (1-cyclopropyl-4-ethylpiperidin-3-yl)(6-methoxynaphthalen-2-yl)methanone]: the IC50 was 4.9 nM. Compared with the last compound, the IC50 is about 19-fold lower.
The value for `COc1ccc2cc(C(=O)C3CCCN(C(C)C)C3)ccc2c1` (stereo not drawn) [Example 81, (1-isopropyl-3-piperidyl)-(6-methoxy-2-naphthyl)methanone] was 6500 nM.
`CCN1CCN(C2CCC2)CC1C(=O)c1ccc2cc(OC)ccc2c1` (stereo not drawn) [Example 190] yielded a half-maximal inhibitory concentration (IC50) of 979 nM.
In turn, `Cc1ccc(-c2ccc(C(=O)C3CCCN(CC4CC4)C3)cc2)cc1` (stereo not drawn) [Example 34, [1-(cyclopropylmethyl)-3-piperidyl]-[4-(p-tolyl)phenyl]methanone] returned a concentration for half-maximal inhibition (IC50) of 402 nM.
